The values below come from patent US20240101538A1, “PROTEIN-PROTEIN INTERACTION MODULATORS OF AURORA KINASE A AND THEIR USE IN THE PREVENTION AND/OR TREATMENT OF CANCER” (EBERHARD KARLS UNIVERSITÄT TÜBINGEN, priority 2020, published 2024).

One assay addresses Aurora A (Homo sapiens (Human), UniProt O14965). The assay is described as follows: ADP-Glo Kinase Assay with Aurora A Kinase Enzyme System. In kind it is biochemical. Particulars: compounds tested from 1 μM. The protocol:
To measure the effect of the compounds on the activity of AURKA, the IC50 of the compounds was determined with the ADP-Glo™ Kinase Assay (Promega, V9101) and the Aurora A Kinase Enzyme System (Promega, V1931). The assay was performed according to the manufacturer's instructions in a white 384-well plate format (Corning Assay Plate, LOT 32216024) by using 1.4 ng/μl Aurora A, […] and 0.1 μg/μl myelin basic protein (MBP) substrate in a total volume of 6 μl (transferred with Integra viaflo 96/384 handheld channel pipette). To generate a dose-response curve, a 3-fold serial dilution of the compounds was tested starting from 1 μM. The kinase was pre-incubated for 10 min at RT with the respective compound, before the substrate mix containing MBP and ATP was added. After 60 min at RT, 6 μl of the ADP-Glo reagent were added and incubated for another 60 min at RT. Afterwards 12 μl of the detection reagent were added and incubated for 30 min at RT before the luminescence was measured with an integration time of 500 ms by using a Filter Max F5 multi-mode microplate reader from Molecular Devices. As a negative control, the reaction was performed with MBP, ATP and Aurora A only. […]
For orientation: ADP-Glo first removes unused ATP, then detects ADP through luciferase.

A further assay has as its target AURKA (Homo sapiens (Human), UniProt O14965). The assay is described as follows: Radioisotope filter binding assay (HotSpotSM; ReactionBiology) for AURKA kinase inhibition. Format: biochemical. An excerpt:
Table 2 summarizes the EC values of different compounds of this invention determined by colony formation assays on NMP53^−/− and NMCdkn2a^ARF−/− cells, as well as the corresponding IC50 values for the kinase inhibition of AURKA, determined by radioisotope filter binding assay (HotSpotSM; ReactionBiology). Most compounds further show a strong selectivity for NMP53^−/− cells, which is indicated by a lower EC concentration of a particular compound required for inhibiting cell growth of NMP53^−/− cells compared to NMCdkn2a^ARF−/− cells.

A further assay addresses MYC-AURKA interaction (Mus musculus (Mouse), UniProt P97477). The assay can be described thus: Proximity ligation assay (PLA) for MYC and AURKA in NMP53^−/− cells. In kind it is cell-based, murine. Particulars: 2 h after treatment. The protocol: To examine whether this MYC degradation is associated with MYC-AURKA PPI disruption, the inventors performed proximity ligation assays (PLA) in NMP53^−/− cells. For Proximity Ligation Assay (PLA), 50 000 cells were seeded on 12 mm glass slides placed in 6 well plates. On the next day, the cells were treated with the indicated compounds or the corresponding DMSO concentration for 2 h (compound 2c [N-(5-((4-(1H-pyrazole-4-yl)benzyl)amino)-2-fluorophenyl)-3-(furan-2-yl)propanamide] and compound 3a [N-(2-fluoro-5-((4-(1-methyl-1H-pyrazole-4-yl)benzyl)amino)phenyl)-3-(furan-2-yl)propanamide]) or 24 h (alisertib) and fixed for 10 min in 100% MeOH at −20° C. The glass slides were removed from the 6 well plates and the cells permeabilized with TBS+0.3% Triton X-100 for 5 min. After washing with PBS and blocking with 5% BSA in TBS+0.05% Tween for 30 min, the slides were incubated with MYC (Abeam ab32072, 1:200) and AURKA (Abcam ab13824, 1:200) specific antibodies in 1% BSA in TBS+0.05% Tween for 120 min at RT and washed 3 times with PBS for 5 min, wherein the MYC/TPX2 and AURKA specific antibodies are derived from a different species. After a 20 min pre-incubation of two PLA probes, directed against either species of the MYC/TPX2 and AURKA specific antibodies, at RT (DUO92001 and DUO92005 Sigma Aldrich, diluted 1:10 in 1% BSA in TBS+0.05% Tween), the slides were incubated with the probes for 60 min at 37° C. in a humidified chamber. The slides were washed 3 times with 1× wash buffer A (Sigma Aldrich DUO82049) for 5 min and incubated with the ligase solution (ligase diluted 1:40 in 5× ligase buffer and ddH2O, Sigma Aldrich DUO92008) for 60 min at 37° C. in a humidified chamber. […] The foci per cell were counted in a way that the cytoplasmic foci are counted to the cell with the closest nucleus (DAPI). Significance was calculated with the GraphPad Prism 8.4.0 software (GraphPad Software, La Jolla, CA) by using the nonparametric Mann Whitney test.

Another assay concerns NMP53^−/− cells. The assay can be described thus: Cell viability assay (XTT-Assay). Particulars: 3 days treatment, read-out: cellular IC50. In kind it is cell-based, murine. The protocol: (A) Colony formation assay of a tumor cell line (NMP53^−/− cells), incubated for 5 days with compound 3a [N-(2-fluoro-5-((4-(1-methyl-1H-pyrazole-4-yl)benzyl)amino)phenyl)-3-(furan-2-yl)-propanamide] as indicated, fixed and stained with crystal violet. (B) Viability measurement (XTT assay) of a tumor cell line (NMP53^−/− cells) treated for 3 days with a series of concentrations of compound 3a according to this invention. […] (C) Determination of the percentage of cell death (by means of propidium iodide staining) of a tumor cell line (NMP53^−/− cells) treated with compound 3a for 5 days.
The cell viability assay (XTT-Assay) was used to determine cellular IC50 values. 1 000 cells were seeded per 96 well and treated with a 2-fold dilution series of the compounds on the next day. As a control, the cells were treated with DMSO according to the highest compound concentration (negative control) or 1.5 mM chloroquine (positive control). 3 days after treatment with the respective compound, or DMSO/chloroquine as a control, the XTT Assay was conducted according to the manufacturer's instructions (Invitrogen, X6493). The absorbance was measured with the Infinite M Plex plate reader (Tecan) at 450 nm. The IC50 was calculated by variable slope nonlinear regression utilizing GraphPad Prism 8.4.0 software (GraphPad Software, La Jolla, CA), with the DMSO treated cells resembling 100% cell viability and the chloroquine treated cells resembling o % cell viability.
(In general: Formazan colour is commonly taken as a measure of viable cells.)

Read-outs that look alike come from different tables or passages of the source. Where only a bound is given, the exact number is not on record here.

MYC-AURKA interaction, sequence (P97477 whole entry): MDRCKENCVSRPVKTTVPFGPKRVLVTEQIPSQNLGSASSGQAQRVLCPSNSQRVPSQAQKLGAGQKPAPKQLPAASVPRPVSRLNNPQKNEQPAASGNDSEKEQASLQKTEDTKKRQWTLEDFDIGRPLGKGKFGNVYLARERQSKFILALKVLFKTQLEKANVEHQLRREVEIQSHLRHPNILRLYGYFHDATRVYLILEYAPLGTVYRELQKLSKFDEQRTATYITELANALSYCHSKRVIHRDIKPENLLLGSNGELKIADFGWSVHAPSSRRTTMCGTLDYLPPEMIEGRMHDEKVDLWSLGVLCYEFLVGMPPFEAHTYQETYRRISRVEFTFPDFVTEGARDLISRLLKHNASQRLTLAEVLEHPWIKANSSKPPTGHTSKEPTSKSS
Aurora A, sequence (O14965 whole entry): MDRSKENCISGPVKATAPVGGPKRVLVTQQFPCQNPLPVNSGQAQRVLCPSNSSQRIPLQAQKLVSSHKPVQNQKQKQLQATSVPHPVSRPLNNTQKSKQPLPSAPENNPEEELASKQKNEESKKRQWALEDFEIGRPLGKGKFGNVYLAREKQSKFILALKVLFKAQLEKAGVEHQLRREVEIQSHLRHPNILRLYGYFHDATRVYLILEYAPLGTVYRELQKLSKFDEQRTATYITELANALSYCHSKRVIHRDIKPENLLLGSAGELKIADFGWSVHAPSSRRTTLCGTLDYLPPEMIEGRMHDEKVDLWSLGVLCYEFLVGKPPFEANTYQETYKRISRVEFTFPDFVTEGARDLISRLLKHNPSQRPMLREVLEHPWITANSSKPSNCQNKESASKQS
AURKA, sequence (O14965 whole entry): as above

Broadly, the IC50 is the concentration needed to halve the response being measured. `O=C(CCc1ccco1)Nc1cc(NCc2ccc(-c3cn[nH]c3)cc2)ccc1F` [Compound 2c, N-(5-((4-(1H-pyrazole-4-yl)benzyl)amino)-2-fluorophenyl)-3-(furan-2-yl)propanamide]: the half-maximal inhibitory concentration (IC50) at Aurora A (read-out: IC50 (AURKA)) is 259 nM; at AURKA, 27.6 nM; with NMP53^−/− cells (Mus musculus, 72 h), 60 nM. The “reduction of the MYC-AURKA interaction compared to DMSO” value at MYC-AURKA interaction is 66.7%.
On to `Cn1cc(-c2ccc(CNc3ccc(F)c(NC(=O)CCc4ccco4)c3)cc2)cn1` [Compound 3a, N-(2-fluoro-5-((4-(1-methyl-1H-pyrazole-4-yl)benzyl)amino)phenyl)-3-(furan-2-yl)propanamide], for which the “IC50 (AURKA)” value against Aurora A is “no kinase inhibition”. Besides, the IC50 at AURKA was above 10000 nM; in the assay with NMP53^−/− cells it was 13 nM; in the assay with NMP53^−/− cells (Mus musculus, 72 h) it was 14 nM. For the same compound, at MYC-AURKA interaction, the “reduction of the MYC-AURKA interaction compared to DMSO” value is reported as 50%.
